Assay results from US8889704B2 (Array BioPharma Inc., priority 2011, dated 2014).
Counter-ions that a name gives are not always drawn.

Tests used:
Assay type in all cases: biochemical
[1] = molecular target: T1, GST-tagged recombinant full-length human Pim-2 (Homo sapiens, UniProt Q9P1W9); test: PIM-2 Assay (as Example A); conditions: averaged IC50; 4 μM ATP, 1.0 μM PIM2tide, 1.5 nM Pim-2
T1 construct: GST-tagged recombinant full-length human Pim-2; GST
Method in brief: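 IC50 was derived by 4-parameter logistic fitting of percent-of-control data over a 10-point, 3-fold series (highest 10 μM, 2% DMSO). Reactions held 1.5 nM GST-Pim-2 (full-length, human), 4 μM [γ-33P]ATP and 1.0 μM PIM2tide for 60 min at 22 °C, pH 7.4; 33P-peptide captured on P81 filters.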

[2] = molecular target: PIM-1 (Homo sapiens, UniProt P11309); test: Enzyme PIM-1 Assay ([33P]ATP incorporation into PIM2tide, filter plate); conditions: averaged IC50; 35 μM ATP, 7.5 μM PIM2tide, 0.25 nM PIM-1, 60 min at 22° C.
Chain of PIM-1 (P11309 whole entry, species assumed): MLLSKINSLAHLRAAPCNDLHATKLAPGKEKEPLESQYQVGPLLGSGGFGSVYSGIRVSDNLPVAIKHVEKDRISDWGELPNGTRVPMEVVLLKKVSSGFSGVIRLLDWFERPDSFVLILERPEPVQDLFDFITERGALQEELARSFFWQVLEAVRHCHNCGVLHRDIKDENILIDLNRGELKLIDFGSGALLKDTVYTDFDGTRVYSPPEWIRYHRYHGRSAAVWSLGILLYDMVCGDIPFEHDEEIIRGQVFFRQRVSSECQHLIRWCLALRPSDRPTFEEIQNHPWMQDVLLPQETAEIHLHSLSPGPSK
Method in brief: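 Ten-point, 3-fold dilution series (10 μM top, 2% DMSO final) tested for inhibition of 33P transfer from 35 μM ATP to 7.5 μM PIM2tide by 0.25 nM PIM-1. Reaction 60 min, 22 °C, pH 7.4 MOPS/MgCl2 buffer; phosphocellulose capture, scintillation counting, IC50 where fitted POC equals 50.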

[3] = molecular target: recombinant rat PIM-3 (Rattus norvegicus, UniProt O70444); test: PIM-3 Assay (as Example A); conditions: averaged IC50; 30 μM ATP, 3.75 μM PIM2tide, 0.5 nM PIM-3
Method in brief: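 33P incorporation from 30 μM [γ-33P]ATP into 3.75 μM PIM2tide by 0.5 nM rat PIM-3, 60 min at 22 °C in pH 7.4 MOPS buffer, read by P81 filter capture and scintillation counting. Compounds tested in 3-fold dilutions up to 10 μM final, 2% DMSO; percent-of-control data fitted by 4-parameter logistic for IC50.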

T1 sequence (Q9P1W9 whole entry): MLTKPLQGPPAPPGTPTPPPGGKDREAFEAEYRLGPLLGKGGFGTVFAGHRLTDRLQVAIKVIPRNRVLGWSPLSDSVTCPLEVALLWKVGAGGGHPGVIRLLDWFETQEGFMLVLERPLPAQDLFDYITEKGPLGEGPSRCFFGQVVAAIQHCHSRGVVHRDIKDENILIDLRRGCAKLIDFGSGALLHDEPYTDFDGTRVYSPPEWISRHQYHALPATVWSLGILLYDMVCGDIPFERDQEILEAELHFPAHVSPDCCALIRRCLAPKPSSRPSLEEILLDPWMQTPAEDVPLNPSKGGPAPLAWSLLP

SMILES | IC50 [1] [nM] | IC50 [2] [nM] | IC50 [3] [nM]
CCOc1cc2nc(-c3nnc4ccc([C@H](N5CC[C@@H](N)C5)C(F)(F)F)cn34)ccc2cc1F [Example 292, (R)-1-((S)-1-(3-(7-ethoxy-6-fluoroquinolin-2-yl)-[1,2,4]triazolo[4,3-a]pyridin-6-yl)-2,2,2-trifluoroethyl)pyrrolidin-3-amine hydrochloride] | 68 | 0.65 | 1.1
CC(C)Oc1cccc2ccc(-c3nnc4ccc([C@@H](N5CC[C@@](C)(N)C5)C(F)(F)F)cn34)nc12 [Example 91, (R)-3-methyl-1-((R)-2,2,2-trifluoro-1-(3-(8-isopropoxyquinolin-2-yl)-[1,2,4]triazolo[4,3-a]pyridin-6-yl)ethyl)pyrrolidin-3-amine dihydrochloride] | > 100 | 0.25 | 2.6
CCOc1cc2nc(-c3nnc4ccc([C@@H](N5CC[C@@H](N)C5)C(F)(F)F)cn34)ccc2cc1F [Example 282, (R)-1-((R)-1-(3-(7-ethoxy-6-fluoroquinolin-2-yl)-[1,2,4]triazolo[4,3-a]pyridin-6-yl)-2,2,2-trifluoroethyl)pyrrolidin-3-amine hydrochloride] | 166 | 0.28 | 0.8
COCCCOc1cc(F)cc2ccc(-c3nnc4ccc([C@@H](N5CC[C@H](N)C5)C(F)(F)F)cn34)nc12 [Example 233, (S)-1-((R)-2,2,2-trifluoro-1-(3-(6-fluoro-8-(3-methoxypropoxy)quinolin-2-yl)-[1,2,4]triazolo[4,3-a]pyridin-6-yl)ethyl)pyrrolidin-3-amine dihydrochloride] | 260 | 0.28 | 1.1
COCCc1cc2nc(-c3nnc4ccc([C@@H](N5CC[C@H](N)C5)C(F)(F)F)cn34)ccc2cc1F [Example 153, (S)-1-((R)-2,2,2-trifluoro-1-(3-(6-fluoro-7-(2-methoxyethyl)quinolin-2-yl)-[1,2,4]triazolo[4,3-a]pyridin-6-yl)ethyl)pyrrolidin-3-amine dihydrochloride] | > 100 | 0.19 | 1.6
OCC1(c2cc(F)cc3ccc(-c4nnc5ccc([C@@H](N6CC[C@H](O)C6)C(F)(F)F)cn45)nc23)CC1 [Example 126, (S)-1-((R)-2,2,2-trifluoro-1-(3-(6-fluoro-8-(1-(hydroxymethyl)cyclopropyl)quinolin-2-yl)-[1,2,4]triazolo[4,3-a]pyridin-6-yl)ethyl)pyrrolidin-3-ol hydrochloride] | > 100 | 0.28 | 1.9
FC(F)(F)C(c1ccc2nnc(-c3ccc4cccc(OCC5CC5)c4n3)n2c1)N1C[C@H]2C[C@@H]1CN2 (stereo partly drawn) [Example 25, 2-(6-(1-((1R,4R)-2,5-diazabicyclo[2.2.1]heptan-2-yl)-2,2,2-trifluoroethyl)-[1,2,4]triazolo[4,3-a]pyridin-3-yl)-8-(cyclopropylmethoxy)quinoline dihydrochloride] | 86 | 0.8 | 5.1
CCc1cccc2ccc(-c3nnc4ccc([C@@H](N5CC[C@H](N)C5)C(F)(F)F)cn34)nc12 [Example 37, (S)-1-((R)-1-(3-(8-ethylquinolin-2-yl)-[1,2,4]triazolo[4,3-a]pyridin-6-yl)-2,2,2-trifluoroethyl)pyrrolidin-3-amine dihydrochloride] | 22 | 0.11 | 0.8
N[C@H]1CCN([C@H](c2ccc3nnc(-c4ccc5cccc(C6CC6)c5n4)n3c2)C(F)(F)F)C1 [Example 39, (S)-1-((R)-1-(3-(8-cyclopropylquinolin-2-yl)-[1,2,4]triazolo[4,3-a]pyridin-6-yl)-2,2,2-trifluoroethyl)pyrrolidin-3-amine dihydrochloride] | 18 | 0.08 | 1
CC(C)(C)NC(=O)c1ccc2ccc(-c3nnc4ccc([C@@H](N5CC[C@@H](N)C5)C(F)(F)F)cn34)nc2c1 [Example 54, 2-(6-((R)-1-((R)-3-aminopyrrolidin-1-yl)-2,2,2-trifluoroethyl)-[1,2,4]triazolo[4,3-a]pyridin-3-yl)-N-tert-butylquinoline-7-carboxamide dihydrochloride] | 67 | 0.41 | 0.6
CC(C)NC(=O)c1ccc2ccc(-c3nnc4ccc([C@H](N5CC[C@H](N)C5)C(F)(F)F)cn34)nc2c1 [Example 48, 2-(6-((S)-1-((S)-3-aminopyrrolidin-1-yl)-2,2,2-trifluoroethyl)-[1,2,4]triazolo[4,3-a]pyridin-3-yl)-N-isopropylquinoline-7-carboxamide dihydrochloride] | > 100 | 1.41 | 1.9
COC[C@@H](C)Oc1ccc2ccc(-c3nnc4ccc([C@@H](N5CC[C@H](N)C5)C(F)(F)F)cn34)nc2c1F [Example 180, (S)-1-((R)-2,2,2-trifluoro-1-(3-(8-fluoro-7-((R)-1-methoxypropan-2-yloxy)quinolin-2-yl)-[1,2,4]triazolo[4,3-a]pyridin-6-yl)ethyl)pyrrolidin-3-amine dihydrochloride] | > 100 | 3.08 | 13
CN(C)C(=O)c1ccc2ccc(-c3nnc4ccc([C@@H](N5CC[C@H](N)C5)C(F)(F)F)cn34)nc2c1 [Example 35, 2-(6-((R)-1-((S)-3-aminopyrrolidin-1-yl)-2,2,2-trifluoroethyl)-[1,2,4]triazolo[4,3-a]pyridin-3-yl)-N,N-dimethylquinoline-7-carboxamide dihydrochloride] | > 1000 | 4.52 | 39
CCOc1cc2nc(-c3nnc4ccc([C@@H](N5CCC(N)(CC)C5)C(F)(F)F)cn34)ccc2cc1F (single isomer, unassigned; diastereomer 1) [Example 243, dihydrochloride] | 728 | 0.54 | 2.1
CCSc1cccc2ccc(-c3nnc4ccc([C@@H](N5CC[C@H](N)C5)C(F)(F)F)cn34)nc12 [Example 273, (S)-1-((R)-1-(3-(8-(ethylthio)quinolin-2-yl)-[1,2,4]triazolo[4,3-a]pyridin-6-yl)-2,2,2-trifluoroethyl)pyrrolidin-3-amine hydrochloride] | > 1000 | 25.9 | 43
COc1c(C2CC2)ccc2ccc(-c3nnc4ccc([C@@H](N5CC[C@H](N)C5)C(F)(F)F)cn34)nc12 [Example 69, (S)-1-((R)-1-(3-(7-cyclopropyl-8-methoxyquinolin-2-yl)-[1,2,4]triazolo[4,3-a]pyridin-6-yl)-2,2,2-trifluoroethyl)pyrrolidin-3-amine dihydrochloride] | 38 | 0.21 | 0.5
CC(C)Oc1cccc2ccc(-c3nnc4ccc([C@H](N5CCC(C)(O)C5)C(F)(F)F)cn34)nc12 (single isomer, unassigned; diastereomer 1) [Example 199] | > 1000 | 18.7 | 30
CC1(N)CCN(C(c2ccc3nnc(-c4ccc5cccc(O)c5n4)n3c2)C(F)(F)F)C1 (stereo not drawn) [Example 28, 2-(6-(1-(3-amino-3-methylpyrrolidin-1-yl)-2,2,2-trifluoroethyl)-[1,2,4]triazolo[4,3-a]pyridin-3-yl)quinolin-8-ol dihydrochloride] | > 1000 | 1.08 | 8.2
FC(F)(F)[C@H](c1ccc2nnc(-c3ccc4ccc(C5CC5)cc4n3)n2c1)N1C[C@@H]2C[C@H]1CN2 [Example 77, 2-(6-((S)-1-((1S,4S)-2,5-diazabicyclo[2.2.1]heptan-2-yl)-2,2,2-trifluoroethyl)-[1,2,4]triazolo[4,3-a]pyridin-3-yl)-7-cyclopropylquinoline dihydrochloride] | 10 | 0.16 | 0.3
COc1ccc2ccc(-c3nnc4ccc([C@@H](N5CC[C@H](N)C5)C(F)(F)F)cn34)nc2c1C1CC1 [Example 143, (S)-1-((R)-1-(3-(8-cyclopropyl-7-methoxyquinolin-2-yl)-[1,2,4]triazolo[4,3-a]pyridin-6-yl)-2,2,2-trifluoroethyl)pyrrolidin-3-amine dihydrochloride] | 38 | 0.09 | 0.5
CCC(C)(C)C(=O)OCCOc1cc2nc(-c3nnc4ccc([C@@H](N5CC[C@H](N)C5)C(F)(F)F)cn34)ccc2cc1F [Example 289, 2-(2-(6-((R)-1-((S)-3-aminopyrrolidin-1-yl)-2,2,2-trifluoroethyl)-[1,2,4]triazolo[4,3-a]pyridin-3-yl)-6-fluoroquinolin-7-yloxy)ethyl 2,2-dimethylbutanoate] | 459 | 0.38 | 1.6
COc1cccc2ccc(-c3nnc4ccc([C@@H](N5CC[C@@](C)(N)C5)C(F)(F)F)cn34)nc12 [Example 240, (R)-3-methyl-1-((R)-2,2,2-trifluoro-1-(3-(8-methoxyquinolin-2-yl)-[1,2,4]triazolo[4,3-a]pyridin-6-yl)ethyl)pyrrolidin-3-amine dihydrochloride] | > 1000 | 2.37 | 18
